Measurements: ChEMBL document CHEMBL3286185, “Constituents of the roots of Clausena lansium and their potential anti-inflammatory activity” (J Nat Prod, 2014)

Legend:
[1] = Antiinflammatory activity in human neutrophil assessed as inhibition of FMLP/CB-induced elastase release for 5 mins; format: functional, cell-based
[2] = Antiinflammatory activity in human neutrophil assessed as inhibition of FMLP/CB-induced superoxide anion generation pretreated for 5 mins by spectrophotometry; format: functional, cell-based

SMILES	IC50 [1] [µM]	IC50 [2] [µM]
COc1cc(C=O)cc2c1[nH]c1ccccc12 [MURRAYANINE]	3.9	3.5
CC(C)=CCOc1c2ccoc2cc2oc(=O)ccc12 [ISOIMPERATORIN]	> 10	4.2
CC(C)=CCc1c(C=O)cc(O)c2[nH]c3ccccc3c12	2	> 10
CC(C)=CCc1c(O)ccc2ccc(=O)oc12 [OSTHENOL]	> 10	2.6
CC(C)=CCOc1c2occc2cc2ccc(=O)oc12 [PENTOSALEN]	> 10	3.5
CC1=C[C@H](C/C(C)=C\COc2c3occc3cc3ccc(=O)oc23)OC1=O	> 10	6.1

The remaining lines, values ahead:

IC50 [1] [µM]	IC50 [2] [µM]	SMILES
> 10	1.9	CC(C)=CCC/C(C)=C/COc1c2occc2cc2ccc(=O)oc12
> 10	8.4	C/C(=C\COc1c2occc2cc2ccc(=O)oc12)C[C@H]1C[C@H](C)C(=O)O1
> 10	4.6	COc1ccc2[nH]c3cc(OC)c(C=O)cc3c2c1 [GLYCOZOLIDAL]
1.5	1	O=c1cc(N2CCOCC2)oc2c(-c3ccccc3)cccc12 [LY-294002]
> 10	4.3	COC(=O)c1ccc2[nH]c3ccccc3c2c1
6.9	3.5	O=Cc1cc(O)c2[nH]c3ccccc3c2c1 [O-DEMETHYLMURRAYANINE]
